Numbers after ± are expanded uncertainties. One block for each compound: values may come before it.
Assay: wn = mass fraction of the nth substance listed
Conditions: 348 K, 101 kPa, Liquid, Pycnometric method

- mass density (w1 = 0.332): 1204 ± 1.6 kg/m3
Compound: [Cl-].[K+] [potassium chloride] + O

- mass density (w1 = 0.2745): 1183 ± 1.4 kg/m3
Compound: [Cl-].[Na+] [sodium chloride] + O

- mass density (w1 = 0.4775): 1620.5 ± 21 kg/m3
Compound: [Cl-].[Cl-].[Sr+2] [strontium chloride] + O

— the NIST ThermoML archive (doi:10.1021/acs.jced.5b00094)
